The results in this text go back to patent publication US9073855B2, “BCL-2 selective apoptosis-inducing agents for the treatment of cancer and immune diseases” (AbbVie Inc., priority 2008, dated 2015).

In assay [1] the target is GST-Bcl-2 (Homo sapiens, UniProt P10415). Nature of the assay: TR-FRET binding assay, GST-Bcl-2 with F-Bak peptide probe. Conditions: TR-FRET Binding Affinity, GST-Bcl-2, F-Bak peptide probe. The method, boiled down:
(§1)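 Displacement of a fluorescein-labelled Bak peptide from the GST-tagged protein was followed by time-resolved FRET with a terbium anti-GST donor after 3 h incubation at room temperature. Inhibition constants were calculated with Wang's equation.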

Assay [2] addresses GST-Bcl-XL (Homo sapiens, UniProt Q07817). Nature of the assay: TR-FRET binding assay, GST-Bcl-XL with F-Bak peptide probe. The settings on record: TR-FRET Binding Affinity, GST-Bcl-XL, F-Bak peptide probe. The method, boiled down:
as §1

Assay [3] relates to FL5.12/Bcl-2 cells. The assay is described as follows: FL5.12/Bcl-2 cell viability assay under IL-3 withdrawal (CellTitre Glo). Format: cell-based, murine. Conditions: Mus musculus, IL-3 withdrawn 48 hrs, then 24 hrs with compound. The method, boiled down: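 Viability measured by CellTitre Glo after FL5.12/Bcl-2 murine cells, starved of IL-3 for 48 hrs, were treated with compounds for another 24 hrs. Killing reflects inhibition of Bcl-2 sequestration of Bim and Puma.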

The structures appear in SMILES notation.

GST-Bcl-2, sequence (P10415 whole entry): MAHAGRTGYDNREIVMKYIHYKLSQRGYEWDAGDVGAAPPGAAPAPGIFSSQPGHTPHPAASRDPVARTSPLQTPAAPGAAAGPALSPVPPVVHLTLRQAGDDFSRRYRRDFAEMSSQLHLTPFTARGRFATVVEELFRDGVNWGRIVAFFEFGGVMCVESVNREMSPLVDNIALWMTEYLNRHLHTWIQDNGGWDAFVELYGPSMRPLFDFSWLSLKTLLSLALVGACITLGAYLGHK
GST-Bcl-XL, sequence (Q07817 whole entry): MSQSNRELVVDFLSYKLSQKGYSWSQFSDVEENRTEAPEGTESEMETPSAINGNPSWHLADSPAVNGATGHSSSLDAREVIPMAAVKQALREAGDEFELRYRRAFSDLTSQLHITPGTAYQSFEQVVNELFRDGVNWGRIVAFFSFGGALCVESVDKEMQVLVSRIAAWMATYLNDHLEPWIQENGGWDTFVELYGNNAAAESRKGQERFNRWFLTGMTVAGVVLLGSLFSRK

As to `C[C@@H](c1ccccc1-c1ccc(Cl)cc1)N1CCN(c2ccc(C(=O)NS(=O)(=O)c3ccc(NCC4CCOCC4)c([N+](=O)[O-])c3)c(Oc3cccc4[nH]ccc34)c2)CC1` [Example 256, 4-{4-[(1S)-1-(4′-chloro-1,1′-biphenyl-2-yl)ethyl]piperazin-1-yl}-2-(1H-indol-4-yloxy)-N-({3-nitro-4-[(tetrahydro-2H-pyran-4-ylmethyl)amino]phenyl}sulfonyl)benzamide], the Ki is 0.12 nM in assay [1] and above 660 nM in assay [2]. Further, the EC50 in assay [3] amounted to 8.89 nM.
For `CC(C1=C(c2ccc(Cl)cc2)CC(C)(C)CC1)N1CCN(c2ccc(C(=O)NS(=O)(=O)c3ccc(NCCCN4CCOCC4)c([N+](=O)[O-])c3)c(Oc3ccc4[nH]ccc4c3)c2)CC1` (stereo not drawn) [Example 257, 4-(4-{1-[2-(4-chlorophenyl)-4,4-dimethylcyclohex-1-en-1-yl]ethyl}piperazin-1-yl)-2-(1H-indol-5-yloxy)-N-({4-[(3-morpholin-4-ylpropyl)amino]-3-nitrophenyl}sulfonyl)benzamide], in that order: 0.171 nM, 17.1 nM and 9.34 nM.
The corresponding values for `CC(C1=C(c2ccc(Cl)cc2)CC(C)(C)CC1)N1CCN(c2ccc(C(=O)NS(=O)(=O)c3ccc(NC4CCN(C5CCOCC5)CC4)c([N+](=O)[O-])c3)c(Oc3ccc4[nH]ccc4c3)c2)CC1` (stereo not drawn) [Example 258, 4-(4-{1-[2-(4-chlorophenyl)-4,4-dimethylcyclohex-1-en-1-yl]ethyl}piperazin-1-yl)-2-(1H-indol-5-yloxy)-N-({3-nitro-4-[(1-tetrahydro-2H-pyran-4-ylpiperidin-4-yl)amino]phenyl}sulfonyl)benzamide] are 0.048 nM, 4.08 nM and 9.11 nM.
The corresponding values for `CC1(C)CCC(CN2CCN(c3ccc(C(=O)NS(=O)(=O)c4ccc(NCC5CCCCC5)c([N+](=O)[O-])c4)c(Oc4ccc5[nH]ccc5c4)c3)CC2)=C(c2ccc(Cl)cc2)C1` [Example 259, 4-(4-{[2-(4-chlorophenyl)-4,4-dimethylcyclohex-1-en-1-yl]methyl}piperazin-1-yl)-N-({4-[(cyclohexylmethyl)amino]-3-nitrophenyl}sulfonyl)-2-(1H-indol-5-yloxy)benzamide] are 1.99 nM, above 660 nM and above 500 nM.
For the compound `CC1(C)CCC(CN2CCN(c3ccc(C(=O)NS(=O)(=O)c4ccc(NN5CCOCC5)c([N+](=O)[O-])c4)c(Oc4ccc5[nH]ccc5c4)c3)CC2)=C(c2ccc(Cl)cc2)C1` [Example 260, 4-(4-{[2-(4-chlorophenyl)-4,4-dimethylcyclohex-1-en-1-yl]methyl}piperazin-1-yl)-2-(1H-indol-5-yloxy)-N-{[4-(morpholin-4-ylamino)-3-nitrophenyl]sulfonyl}benzamide], the Ki was 1.09 nM in assay [1] and above 660 nM in assay [2]. In addition, the EC50 in assay [3] stood at 59.4 nM.
With `CC1(C)CCC(CN2CCN(c3ccc(C(=O)NS(=O)(=O)c4ccc(NN5CCOCC5)c([N+](=O)[O-])c4)c(Oc4cccc5[nH]ccc45)c3)CC2)=C(c2ccc(Cl)cc2)C1` [Example 262, 4-(4-{[2-(4-chlorophenyl)-4,4-dimethylcyclohex-1-en-1-yl]methyl}piperazin-1-yl)-2-(1H-indol-4-yloxy)-N-{[4-(morpholin-4-ylamino)-3-nitrophenyl]sulfonyl}benzamide], the Ki in assay [1] is 3 nM; in assay [2], above 660 nM. Moreover, the EC50 in assay [3] was 176 nM.
For `CC1(C)CCC(CN2CCN(c3ccc(C(=O)NS(=O)(=O)c4ccc(NC5CCOCC5)c([N+](=O)[O-])c4)c(Oc4ccc5[nH]ccc5c4)c3)CC2)=C(c2ccc(Cl)cc2)C1` [Example 263, 4-(4-{[2-(4-chlorophenyl)-4,4-dimethylcyclohex-1-en-1-yl]methyl}piperazin-1-yl)-2-(1H-indol-5-yloxy)-N-{[3-nitro-4-(tetrahydro-2H-pyran-4-ylamino)phenyl]sulfonyl}benzamide], in that order: 0.316 nM, above 660 nM and 28.4 nM.
For `CC1(C)CCC(CN2CCN(c3ccc(C(=O)NS(=O)(=O)c4ccc(NCC5(C)COC5)c([N+](=O)[O-])c4)c(Oc4ccc5[nH]ccc5c4)c3)CC2)=C(c2ccc(Cl)cc2)C1` [Example 264, 4-(4-{[2-(4-chlorophenyl)-4,4-dimethylcyclohex-1-en-1-yl]methyl}piperazin-1-yl)-2-(1H-indol-5-yloxy)-N-[(4-{[(3-methyloxetan-3-yl)methyl]amino}-3-nitrophenyl)sulfonyl]benzamide], in that order: 0.235 nM, above 660 nM and 25.7 nM.
The corresponding values for `COC1CCC(Nc2ccc(S(=O)(=O)NC(=O)c3ccc(N4CCN(CC5=C(c6ccc(Cl)cc6)CC(C)(C)CC5)CC4)cc3Oc3ccc4[nH]ccc4c3)cc2[N+](=O)[O-])CC1` (stereo not drawn) [Example 265, 4-(4-{[2-(4-chlorophenyl)-4,4-dimethylcyclohex-1-en-1-yl]methyl}piperazin-1-yl)-2-(1H-indol-5-yloxy)-N-({4-[(4-methoxycyclohexyl)amino]-3-nitrophenyl}sulfonyl)benzamide] are 1.7 nM, above 660 nM and 244 nM.
Regarding `CC1(C)CCC(CN2CCN(c3ccc(C(=O)NS(=O)(=O)c4ccc(NCCCN5CCS(=O)(=O)CC5)c([N+](=O)[O-])c4)c(Oc4ccc5[nH]ccc5c4)c3)CC2)=C(c2ccc(Cl)cc2)C1` [Example 266, 4-(4-{[2-(4-chlorophenyl)-4,4-dimethylcyclohex-1-en-1-yl]methyl}piperazin-1-yl)-N-[(4-{[3-(1,1-dioxidothiomorpholin-4-yl)propyl]amino}-3-nitrophenyl)sulfonyl]-2-(1H-indol-5-yloxy)benzamide], the values for the Ki in assay [1] and in assay [2] were 0.183 nM and above 660 nM, respectively. For the same compound, in assay [3], the EC50 is 11.5 nM.
For the compound `CC1(C)CCC(CN2CCN(c3ccc(C(=O)NS(=O)(=O)c4ccc(NCCN5CCCCC5=O)c([N+](=O)[O-])c4)c(Oc4ccc5[nH]ccc5c4)c3)CC2)=C(c2ccc(Cl)cc2)C1` [Example 267, 4-(4-{[2-(4-chlorophenyl)-4,4-dimethylcyclohex-1-en-1-yl]methyl}piperazin-1-yl)-2-(1H-indol-5-yloxy)-N-[(3-nitro-4-{[2-(2-oxopiperidin-1-yl)ethyl]amino}phenyl)sulfonyl]benzamide], the Ki in assay [1] was 0.454 nM; in assay [2], above 660 nM. The EC50 in assay [3] was found to be 56.4 nM.
The corresponding values for `CC1(C)CCC(CN2CCN(c3ccc(C(=O)NS(=O)(=O)c4ccc(NCCN5CCNC5=O)c([N+](=O)[O-])c4)c(Oc4ccc5[nH]ccc5c4)c3)CC2)=C(c2ccc(Cl)cc2)C1` [Example 268, 4-(4-{[2-(4-chlorophenyl)-4,4-dimethylcyclohex-1-en-1-yl]methyl}piperazin-1-yl)-2-(1H-indol-5-yloxy)-N-[(3-nitro-4-{[2-(2-oxoimidazolidin-1-yl)ethyl]amino}phenyl)sulfonyl]benzamide] are 0.092 nM, 145 nM and 68.2 nM.
Turning to `CC1(C)CCC(CN2CCN(c3ccc(C(=O)NS(=O)(=O)c4ccc(N5CCOCC5)c([N+](=O)[O-])c4)c(Oc4ccc5[nH]ccc5c4)c3)CC2)=C(c2ccc(Cl)cc2)C1` [Example 270, 4-(4-{[2-(4-chlorophenyl)-4,4-dimethylcyclohex-1-en-1-yl]methyl}piperazin-1-yl)-2-(1H-indol-5-yloxy)-N-[(4-morpholin-4-yl-3-nitrophenyl)sulfonyl]benzamide], the Ki in assay [1] is 3.31 nM; in assay [2] it was above 660 nM. For the same compound, the concentration giving a half-maximal response (EC50) in assay [3] turned out to be 429 nM.
As for `COC1CCN(c2ccc(S(=O)(=O)NC(=O)c3ccc(N4CCN(CC5=C(c6ccc(Cl)cc6)CC(C)(C)CC5)CC4)cc3Oc3ccc4[nH]ccc4c3)cc2[N+](=O)[O-])CC1` [Example 271, 4-(4-{[2-(4-chlorophenyl)-4,4-dimethylcyclohex-1-en-1-yl]methyl}piperazin-1-yl)-2-(1H-indol-5-yloxy)-N-{[4-(4-methoxypiperidin-1-yl)-3-nitrophenyl]sulfonyl}benzamide], the values for the Ki in assay [1] and in assay [2] were 6.16 nM and above 660 nM, respectively. Further, the EC50 in assay [3] was above 500 nM.
As for `O=C(NS(=O)(=O)c1ccc(NCC2CCOCC2)c([N+](=O)[O-])c1)c1ccc(N2CCN(CC3=C(c4ccc(Cl)cc4)CCC(N4CCCC4)C3)CC2)cc1Oc1ccc2[nH]ccc2c1` (stereo not drawn) [Example 272, 4-(4-{[2-(4-chlorophenyl)-5-pyrrolidin-1-ylcyclohex-1-en-1-yl]methyl}piperazin-1-yl)-2-(1H-indol-5-yloxy)-N-({3-nitro-4-[(tetrahydro-2H-pyran-4-ylmethyl)amino]phenyl}sulfonyl)benzamide], the Ki in assay [1] is 0.011 nM; in assay [2] it was above 660 nM. For the same compound, the EC50 in assay [3] came out at 194 nM.
For `CC1(C)CCC(CN2CCN(c3ccc(C(=O)NS(=O)(=O)c4ccc(NCCN5CCNC(=O)C5)c([N+](=O)[O-])c4)c(Oc4ccc5[nH]ccc5c4)c3)CC2)=C(c2ccc(Cl)cc2)C1` [Example 273, 4-(4-{[2-(4-chlorophenyl)-4,4-dimethylcyclohex-1-en-1-yl]methyl}piperazin-1-yl)-2-(1H-indol-5-yloxy)-N-[(3-nitro-4-{[2-(3-oxopiperazin-1-yl)ethyl]amino}phenyl)sulfonyl]benzamide], in that order: 0.076 nM, 181 nM and 70 nM.

For orientation: Ki means the equilibrium dissociation constant of an inhibitor or competing ligand from its target. Low values mean tighter binding, high ones weaker binding. A word on the EC50: it is the midpoint of the concentration-response curve.
